Experimental data taken from patent US20080044455A1, “Tonsillitus Treatment” (priority 2006, published 2008).

System: tonsils, throat and back of the mouth
Assay: topical application of lactic acid (diluted in a liquid carrier such as juice) to tonsils, throat and back of the mouth
Format: in vivo, human
Method: In one aspect, a mixture of 10% by volume of pharmaceutical lactic acid is mixed with 90% by volume liquid carrier, such as juice, and the mixture is ingested 3 times a day for a month at a dosage of one teaspoon (approximately 0.005 liters) per application. After a two week pause, the patient is evaluated for the reduction in size of the tonsils. […] The number of applications per day can be reduced to two times a day, in the event that it is hard to implement with the patient, thus extending the duration of the treatment by 10 days.
In one aspect, the mixture or solution is ingested, such as by repeatedly drinking, as at step 50, over a period of time such as a week, to topically apply the mixture or solution constituents to the surfaces of the tonsils, throat and/or mouth, at least twice, with a duration of time between the two applications.

## CC(O)C(=O)O (stereo not drawn) [lactic acid, Lactic Acid]
Topical application to tonsils, throat and mouth
  size of the tonsils: reduction of the size of the tonsils
Topical application, lactic acid diluted in a liquid carrier such as a juice
  recurrence of the inflammation and infection causing the inflammation: reduction in the recurrence of the inflammation and infection
Topical application, lactic acid diluted in a liquid carrier such as a juice, drunk or otherwise applied
  inflammation and pain in the treated areas: reduction of both inflammation and pain in the treated areas
